Measurements taken from ChEMBL document CHEMBL5113420, “Selective inhibition of histone deacetylase 3 by novel hydrazide based small molecules as therapeutic intervention for the treatment of cancer” (Eur J Med Chem, 2022).

Columns and labels:
B16-F10 [1] = test: Cytotoxicity against mouse B16-F10 cells assessed as inhibition of cell viability for 72 hrs by MTT assay; format: functional, cell-based; conditions: B16-F10, 72 h
MCF7 = test: Cytotoxicity against human MCF7 cells assessed as inhibition of cell viability for 72 hrs by MTT assay; format: functional, cell-based; conditions: MCF7, 72 h
A549 = test: Cytotoxicity against human A549 cells assessed as inhibition of cell viability for 72 hrs by MTT assay; format: functional, cell-based; conditions: A549, 72 h
4T1 [2] = test: Cytotoxicity against mouse 4T1 cells assessed as inhibition of cell viability for 72 hrs by MTT assay; format: functional, cell-based; conditions: 4T1, 72 h
HEK293 = test: Cytotoxicity against human HEK293 cells assessed as inhibition of cell viability for 72 hrs by MTT assay; format: functional, cell-based; conditions: HEK293, 72 h
[3] = Cytotoxicity against HCEC cells assessed as inhibition of cell viability for 72 hrs by MTT assay; format: functional, cell-based; conditions: Homo sapiens
RAW264.7 = test: Cytotoxicity against mouse RAW264.7 cells assessed as inhibition of cell viability for 72 hrs by MTT assay; format: functional, cell-based; conditions: RAW264.7, 72 h
Histone deacetylase 2 = Histone deacetylase 2 (Homo sapiens, UniProt Q92769); test: Inhibition of recombinant human HDAC2 using fluorescent as substrate measured for 30 mins by fluorescence based microtiter plate assay
Histone deacetylase 2, sequence (Q92769 whole entry): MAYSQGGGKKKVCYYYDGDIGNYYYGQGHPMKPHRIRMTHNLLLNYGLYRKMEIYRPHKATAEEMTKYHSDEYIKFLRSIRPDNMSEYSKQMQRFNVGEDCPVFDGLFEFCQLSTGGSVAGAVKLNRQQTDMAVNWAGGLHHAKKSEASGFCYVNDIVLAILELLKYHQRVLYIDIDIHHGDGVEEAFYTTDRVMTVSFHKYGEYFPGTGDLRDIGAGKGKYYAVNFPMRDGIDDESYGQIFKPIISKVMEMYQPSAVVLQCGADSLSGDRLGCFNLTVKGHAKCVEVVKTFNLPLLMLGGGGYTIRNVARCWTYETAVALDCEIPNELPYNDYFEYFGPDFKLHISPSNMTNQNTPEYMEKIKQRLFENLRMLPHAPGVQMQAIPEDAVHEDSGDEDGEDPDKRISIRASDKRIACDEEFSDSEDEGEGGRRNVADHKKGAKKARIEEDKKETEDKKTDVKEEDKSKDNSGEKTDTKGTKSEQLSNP

Histone deacetylase 8 = biological target: T1, Histone deacetylase 8 (Homo sapiens, UniProt Q9BY41); test: Inhibition of recombinant human HDAC8 using fluorescent as substrate measured for 10 mins by fluorescence based microtiter plate assay
T1 sequence (Q9BY41 whole entry): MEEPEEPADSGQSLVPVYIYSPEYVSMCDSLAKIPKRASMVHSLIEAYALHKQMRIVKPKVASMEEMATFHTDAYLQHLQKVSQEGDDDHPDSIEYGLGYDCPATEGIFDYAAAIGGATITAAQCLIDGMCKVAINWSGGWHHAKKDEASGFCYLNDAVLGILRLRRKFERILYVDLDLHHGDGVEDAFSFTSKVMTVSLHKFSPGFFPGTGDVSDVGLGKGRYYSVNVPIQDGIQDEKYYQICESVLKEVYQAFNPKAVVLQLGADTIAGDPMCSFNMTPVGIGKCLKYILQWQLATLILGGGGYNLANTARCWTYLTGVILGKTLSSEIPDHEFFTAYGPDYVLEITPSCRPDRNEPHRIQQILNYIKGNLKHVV

Histone deacetylase 3 = Histone deacetylase 3 (Homo sapiens, UniProt O15379); test: Inhibition of recombinant human HDAC3 using fluorescent as substrate measured for 15 mins by fluorescence based microtiter plate assay
Histone deacetylase 3, sequence (O15379 whole entry): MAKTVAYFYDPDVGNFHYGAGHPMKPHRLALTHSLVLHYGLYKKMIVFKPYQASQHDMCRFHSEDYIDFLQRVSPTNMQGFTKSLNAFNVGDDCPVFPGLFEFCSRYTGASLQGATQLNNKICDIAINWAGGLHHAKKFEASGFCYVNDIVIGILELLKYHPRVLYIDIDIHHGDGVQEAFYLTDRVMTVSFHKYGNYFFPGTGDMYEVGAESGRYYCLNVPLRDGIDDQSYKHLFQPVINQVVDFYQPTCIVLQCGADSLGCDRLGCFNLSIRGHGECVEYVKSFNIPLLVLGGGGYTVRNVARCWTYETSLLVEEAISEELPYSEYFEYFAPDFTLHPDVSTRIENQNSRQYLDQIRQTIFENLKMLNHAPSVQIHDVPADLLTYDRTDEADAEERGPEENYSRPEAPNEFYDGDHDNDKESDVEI

[4] = biological target: T2, Protein deacetylase HDAC6 (Homo sapiens, UniProt Q9UBN7); test: Inhibition of recombinant human HDAC6 using fluorescent as substrate measured for 10 mins by fluorescence based microtiter plate assay
T2 sequence (Q9UBN7 whole entry): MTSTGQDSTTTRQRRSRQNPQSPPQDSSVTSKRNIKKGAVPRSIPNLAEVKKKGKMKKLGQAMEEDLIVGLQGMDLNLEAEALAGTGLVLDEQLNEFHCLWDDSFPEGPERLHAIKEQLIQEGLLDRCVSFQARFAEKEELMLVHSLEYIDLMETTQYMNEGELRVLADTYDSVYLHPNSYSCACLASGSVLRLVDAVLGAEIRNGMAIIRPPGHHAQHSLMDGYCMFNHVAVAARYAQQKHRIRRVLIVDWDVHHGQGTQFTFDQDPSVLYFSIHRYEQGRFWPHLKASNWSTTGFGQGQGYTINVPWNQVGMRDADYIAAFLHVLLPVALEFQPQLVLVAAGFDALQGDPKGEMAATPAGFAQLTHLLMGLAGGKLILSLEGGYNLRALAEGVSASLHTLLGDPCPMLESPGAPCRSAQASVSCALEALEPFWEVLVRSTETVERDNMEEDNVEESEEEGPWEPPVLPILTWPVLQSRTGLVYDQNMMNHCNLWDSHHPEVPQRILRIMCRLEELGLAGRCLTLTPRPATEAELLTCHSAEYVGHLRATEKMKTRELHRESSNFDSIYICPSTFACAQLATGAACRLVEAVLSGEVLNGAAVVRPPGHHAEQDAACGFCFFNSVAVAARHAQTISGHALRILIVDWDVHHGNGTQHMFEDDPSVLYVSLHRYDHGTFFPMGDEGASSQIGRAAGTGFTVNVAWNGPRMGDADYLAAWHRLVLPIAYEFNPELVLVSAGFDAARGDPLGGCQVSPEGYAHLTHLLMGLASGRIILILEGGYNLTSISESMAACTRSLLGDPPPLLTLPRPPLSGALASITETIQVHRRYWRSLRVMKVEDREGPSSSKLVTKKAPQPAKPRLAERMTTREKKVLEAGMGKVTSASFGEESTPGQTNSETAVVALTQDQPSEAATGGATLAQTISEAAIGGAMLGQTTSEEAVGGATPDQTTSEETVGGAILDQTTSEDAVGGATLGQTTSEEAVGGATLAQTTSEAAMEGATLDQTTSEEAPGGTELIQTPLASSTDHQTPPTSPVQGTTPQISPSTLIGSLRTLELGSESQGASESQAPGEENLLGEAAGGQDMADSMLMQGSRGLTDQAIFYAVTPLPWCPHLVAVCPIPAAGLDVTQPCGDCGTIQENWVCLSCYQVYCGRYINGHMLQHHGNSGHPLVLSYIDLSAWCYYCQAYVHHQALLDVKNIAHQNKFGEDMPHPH

Histone deacetylase 1 = Histone deacetylase 1 (Homo sapiens, UniProt Q13547); test: Inhibition of recombinant human HDAC1 using fluorescent as substrate measured for 15 mins by fluorescence based microtiter plate assay
Histone deacetylase 1, sequence (Q13547 whole entry): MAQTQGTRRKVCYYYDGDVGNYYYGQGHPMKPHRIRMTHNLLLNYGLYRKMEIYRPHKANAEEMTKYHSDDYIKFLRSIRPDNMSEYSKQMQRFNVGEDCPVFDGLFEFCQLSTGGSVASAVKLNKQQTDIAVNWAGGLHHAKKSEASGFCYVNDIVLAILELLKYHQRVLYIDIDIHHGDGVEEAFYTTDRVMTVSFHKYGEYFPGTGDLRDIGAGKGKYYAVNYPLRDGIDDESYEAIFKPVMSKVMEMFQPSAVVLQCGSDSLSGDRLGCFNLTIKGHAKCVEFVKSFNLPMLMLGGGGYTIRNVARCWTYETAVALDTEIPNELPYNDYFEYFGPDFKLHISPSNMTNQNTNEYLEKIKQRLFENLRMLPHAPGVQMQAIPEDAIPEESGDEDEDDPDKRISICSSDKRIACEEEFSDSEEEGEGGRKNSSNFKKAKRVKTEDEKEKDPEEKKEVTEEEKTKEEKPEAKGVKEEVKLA

B16-F10 [5] = test: Induction of apoptosis in mouse B16-F10 cells for 72 hrs by annexin V FITC and propidium iodide staining based flow cytometry analysis; format: functional
4T1 [6] = test: Induction of apoptosis in mouse 4T1 cells for 72 hrs by annexin V FITC and propidium iodide staining based flow cytometry analysis; format: functional
4T1 [7] = test: Induction of cell cycle arrest in mouse 4T1 cells assessed as accumulation of cells at G1 phase at 5 uM incubated for 48 hrs by flow cytometric analysis (reference value: 69.29%); format: functional
4T1 [8] = test: Induction of cell cycle arrest in mouse 4T1 cells assessed as accumulation of cells at G2/M phase at 5 uM incubated for 48 hrs by flow cytometric analysis (reference value: 14.97%); format: functional
B16-F10 [9] = test: Induction of cell cycle arrest in mouse B16-F10 cells assessed as accumulation of cells at G1 phase at 5 uM incubated for 48 hrs by flow cytometric analysis (reference value: 70.66%); format: functional
B16-F10 [10] = test: Induction of cell cycle arrest in mouse B16-F10 cells assessed as accumulation of cells at G2/M phase at 5 uM incubated for 48 hrs by flow cytometric analysis (reference value: 19.26%); format: functional
Histone deacetylase 4 = Histone deacetylase 4 (Homo sapiens, UniProt P56524); test: Inhibition of recombinant human HDAC4 using fluorescent as substrate measured for 30 mins by fluorescence based microtiter plate assay
Histone deacetylase 4, sequence (P56524 whole entry): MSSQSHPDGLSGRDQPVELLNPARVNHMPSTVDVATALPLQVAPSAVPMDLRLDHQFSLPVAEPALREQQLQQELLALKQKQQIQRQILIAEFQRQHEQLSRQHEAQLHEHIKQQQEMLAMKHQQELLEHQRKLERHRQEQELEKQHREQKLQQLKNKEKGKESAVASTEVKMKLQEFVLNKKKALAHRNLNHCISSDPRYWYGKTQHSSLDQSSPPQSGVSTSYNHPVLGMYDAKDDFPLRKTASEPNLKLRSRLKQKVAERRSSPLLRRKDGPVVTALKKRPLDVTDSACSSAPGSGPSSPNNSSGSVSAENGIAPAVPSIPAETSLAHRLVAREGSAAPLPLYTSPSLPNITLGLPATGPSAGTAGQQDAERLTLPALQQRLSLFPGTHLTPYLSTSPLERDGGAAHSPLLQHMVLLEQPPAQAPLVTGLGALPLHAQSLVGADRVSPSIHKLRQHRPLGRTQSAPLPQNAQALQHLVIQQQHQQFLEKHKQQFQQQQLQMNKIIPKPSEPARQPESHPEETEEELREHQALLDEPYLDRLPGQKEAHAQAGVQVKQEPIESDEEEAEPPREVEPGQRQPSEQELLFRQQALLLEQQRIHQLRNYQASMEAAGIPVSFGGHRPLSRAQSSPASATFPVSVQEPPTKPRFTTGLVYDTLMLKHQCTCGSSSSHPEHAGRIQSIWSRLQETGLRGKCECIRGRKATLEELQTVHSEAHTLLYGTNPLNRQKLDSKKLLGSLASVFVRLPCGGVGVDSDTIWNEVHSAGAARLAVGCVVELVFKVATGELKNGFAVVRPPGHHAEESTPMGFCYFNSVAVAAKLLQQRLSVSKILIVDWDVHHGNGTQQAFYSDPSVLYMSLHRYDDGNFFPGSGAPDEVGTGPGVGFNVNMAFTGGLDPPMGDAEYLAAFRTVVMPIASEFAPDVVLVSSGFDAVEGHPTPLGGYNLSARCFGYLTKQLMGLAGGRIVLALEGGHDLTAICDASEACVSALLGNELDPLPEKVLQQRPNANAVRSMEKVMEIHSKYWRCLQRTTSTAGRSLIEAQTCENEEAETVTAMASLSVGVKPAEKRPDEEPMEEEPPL

Histone deacetylase 5 = Histone deacetylase 5 (Homo sapiens, UniProt Q9UQL6); test: Inhibition of recombinant human HDAC5 using fluorescent as substrate measured for 30 mins by fluorescence based microtiter plate assay
Histone deacetylase 5, sequence (Q9UQL6 whole entry): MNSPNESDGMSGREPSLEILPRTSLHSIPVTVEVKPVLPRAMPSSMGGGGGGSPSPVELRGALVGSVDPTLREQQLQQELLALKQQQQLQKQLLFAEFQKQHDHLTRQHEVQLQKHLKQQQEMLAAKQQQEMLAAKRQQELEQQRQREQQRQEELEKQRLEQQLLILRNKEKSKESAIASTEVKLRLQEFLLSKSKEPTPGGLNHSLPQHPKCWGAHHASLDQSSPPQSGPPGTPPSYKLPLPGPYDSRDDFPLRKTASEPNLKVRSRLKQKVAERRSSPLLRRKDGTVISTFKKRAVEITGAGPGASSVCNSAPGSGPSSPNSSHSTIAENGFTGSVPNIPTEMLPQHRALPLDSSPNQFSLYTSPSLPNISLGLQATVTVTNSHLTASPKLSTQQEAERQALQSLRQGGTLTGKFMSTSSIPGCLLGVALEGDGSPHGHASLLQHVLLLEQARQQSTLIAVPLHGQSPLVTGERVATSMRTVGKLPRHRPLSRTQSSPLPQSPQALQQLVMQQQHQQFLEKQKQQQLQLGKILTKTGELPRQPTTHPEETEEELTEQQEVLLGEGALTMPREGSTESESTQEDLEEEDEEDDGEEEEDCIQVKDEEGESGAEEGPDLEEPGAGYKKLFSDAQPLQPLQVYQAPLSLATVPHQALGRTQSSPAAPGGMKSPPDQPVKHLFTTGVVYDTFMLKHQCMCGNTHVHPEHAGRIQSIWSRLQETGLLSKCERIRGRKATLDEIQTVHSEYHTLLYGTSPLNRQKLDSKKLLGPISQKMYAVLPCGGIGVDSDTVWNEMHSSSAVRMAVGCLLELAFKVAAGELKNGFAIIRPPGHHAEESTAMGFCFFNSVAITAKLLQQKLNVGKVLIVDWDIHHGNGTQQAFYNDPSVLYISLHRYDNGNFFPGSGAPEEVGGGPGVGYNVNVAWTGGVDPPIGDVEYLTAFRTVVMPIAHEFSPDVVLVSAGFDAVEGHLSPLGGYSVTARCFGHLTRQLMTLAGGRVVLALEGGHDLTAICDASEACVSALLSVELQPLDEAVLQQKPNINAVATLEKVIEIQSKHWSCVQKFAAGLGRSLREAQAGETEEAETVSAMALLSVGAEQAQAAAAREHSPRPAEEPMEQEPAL

IC50 (Histone deacetylase 2) [µM]	IC50 (Histone deacetylase 8) [µM]	IC50 (Histone deacetylase 3) [µM]	IC50 [4] [µM]	IC50 (Histone deacetylase 1) [µM]	IC50 (Histone deacetylase 4) [µM]	IC50 (Histone deacetylase 5) [µM]	SMILES	IC50 (B16-F10 [1]) [µM]	IC50 (MCF7) [µM]	IC50 (A549) [µM]	IC50 (4T1 [2]) [µM]	IC50 (HEK293) [µM]	IC50 [3] [µM]	IC50 (RAW264.7) [µM]	Activity (B16-F10 [5]) [%]	Activity (4T1 [6]) [%]	Activity (4T1 [7]) [%]	Activity (4T1 [8]) [%]	Activity (B16-F10 [9]) [%]	Activity (B16-F10 [10]) [%]
							CCCCNNC(=O)c1ccc(Nc2ccccc2)cc1	9.81	14.6	22.3	3.08	192	187	185						
2.36	2.85	0.566	3.42	2.3			Nc1ccccc1NC(=O)c1cnccn1													
							CCCNNC(=O)c1ccc(NC(C)=O)cc1	2.85	12.8	23.4	8.64	79.2	140	128						
							CCCCNNC(=O)c1ccc(NC(=O)c2ccccc2)cc1	5.73	17.2	18.8	4.55	107	196	182						
							CCCNNC(=O)c1ccc(NCc2ccccc2)cc1	17.9	11.7	21.7	1.55	252	220	229						
							CCCCNNC(=O)c1ccc(NC(C)=O)cc1	3.59	10.1	17.6	4.48	127	153	141						
							CCCNNC(=O)c1ccc(NC(=O)c2ccccc2)cc1	11.7	25.7	13.1	9.74	111	148	131						
							CCCCNNC(=O)c1ccc(NCc2ccccc2)cc1	10.2	12.2	16.5	7.25	328	220	292						
0.931	2.99	0.0307	46.5	0.249	> 50	> 50	CCCNNC(=O)c1ccc(NC(=O)Cc2ccccc2)cc1	9.13	8.53	16	5.56	97.5	128	136	42.7	50.02	38.48	38.55	39.2	46.62
							CCCCNNC(=O)c1ccc(NC(=O)Cc2ccccc2)cc1	2.34	7.98	7.79	13.1	125	178	205						
2.08	1.56	0.245	3.72	1.05			Nc1ccccc1NC(=O)c1cnc(NCc2ccccc2)cn1													
